Measured values taken from the Deep4Chem optical property database.
Values belong to the molecule of their own block, whether it stands above or below them.

Experiment: solvent given as SMILES

Compound: CC(C)(C)c1ccc2c(c1)c1cc(C(C)(C)C)ccc1n2-c1ccc(-c2ccc3c(c2)C(=O)c2ccc(-c4ccc(-n5c6ccc(C(C)(C)C)cc6c6cc(C(C)(C)C)ccc65)cc4)cc2C3=O)cc1
absorption maximum (in Cc1ccccc1): 426 nm

Compound: Cc1ccc(-c2c3nc(c(-c4ccc(C)cc4)c4ccc([nH]4)c(-c4ccc(OC(=O)C(C)c5cccc(C(=O)c6ccccc6)c5)cc4)c4nc(c(-c5ccc(C)cc5)c5ccc2[nH]5)C=C4)C=C3)cc1 (stereo unspecified)
absorption maximum (in ClCCl): 649 nm

Compound: CC1=[N+]2C(=C(c3ccccc3)c3c4c(c(C)n3[B-]2(F)F)CCc2ccccc2-4)C2=C1CCc1ccccc12
absorption maximum (in CC#N): 565 nm

Compound: CC(=O)c1c2c(cc3cc(N(C)C)ccc13)CCC2
absorption maximum (in C1CCCCC1): 363 nm
absorption maximum (in C1CCOC1): 370 nm
absorption maximum (in C1COCCO1): 370 nm
absorption maximum (in CC#N): 370 nm
absorption maximum (in CCO): 374 nm
absorption maximum (in CS(C)=O): 374 nm
absorption maximum (in Cc1ccccc1): 368 nm
absorption maximum (in ClC(Cl)Cl): 373 nm
absorption maximum (in ClCCl): 372 nm

Compound: N#CC(C#N)=C(c1cccc(N(c2ccccc2)c2ccccc2)c1)c1cccc(N(c2ccccc2)c2ccccc2)c1
absorption maximum (in C1CCCCC1): 367.69 nm
absorption maximum (in CC(C)=O): 371.43 nm
absorption maximum (in CN(C)C=O): 374.84 nm
absorption maximum (in Cc1ccccc1): 374.84 nm
absorption maximum (in ClC(Cl)Cl): 382.14 nm

Compound: Cc1cc(C)c(C2=C3C=C(/C=C/C(=O)OC(C)(C)C)C=[N+]3[B-](F)(F)n3c2ccc3N2CCOCC2)c(C)c1
absorption maximum (in CC#N): 480 nm
absorption maximum (in CCCCCC): 532 nm
absorption maximum (in CN(C)C=O): 485 nm
absorption maximum (in CO): 483 nm
absorption maximum (in Cc1ccccc1): 525 nm
absorption maximum (in ClCCl): 497 nm

Compound: COc1ccccc1NC1=CC(=O)c2ccccc2C1=O
absorption maximum (in CCCCCC): 468 nm
absorption maximum (in CO): 476 nm

Compound: CCOC(=O)c1c(NC(C)(C)C)oc(-c2ccc(-c3ccccc3)cc2)c1C(=O)OCC
absorption maximum (in CC#N): 355 nm

Compound: CC1=N/C(=C\c2ccncc2)C(=O)N1C
absorption maximum (in C1COCCO1): 357 nm
absorption maximum (in CC#N): 356 nm
absorption maximum (in CCO): 351 nm
absorption maximum (in CCOC(C)=O): 353 nm
absorption maximum (in O): 347 nm

Compound: COc1cc2sc3nc(-c4ccccc4OC)sc3c2cc1OC
absorption maximum (in CS(C)=O): 365 nm

Compound: C=CCNc1ccc2ccc3oc4cc(=[N+](C)C)ccc-4nc3c2c1
absorption maximum (in CC#N): 569 nm
absorption maximum (in CCO): 572 nm
absorption maximum (in ClCCl): 582 nm
absorption maximum (in O): 552 nm

Compound: c1cc2c3c(cccc3c1)-c1cc3c(ccc4ccccc43)cc1-2
absorption maximum (in CCCCCCC): 405 nm

Compound: CN(C)c1cccc2c1C(=O)c1ccccc1-2
absorption maximum (in C1CCCCC1): 433 nm
absorption maximum (in CC#N): 444 nm
absorption maximum (in CCO): 449 nm
absorption maximum (in c1ccccc1): 445 nm

Compound: COc1ccc(/C=C/c2cc(/C=C/c3ccc(OC)cc3)nc(/C=C/c3ccc(C(F)(F)F)cc3)n2)cc1
absorption maximum (in ClCCl): 370 nm

Compound: N#CC(C#N)=Cc1ccc2c(c1)c1ccccc1n2-c1cc2ccccc2c2ccccc12
absorption maximum (in CC#N): 395 nm
absorption maximum (in CCCCC): 393 nm
absorption maximum (in Cc1ccccc1): 402 nm
absorption maximum (in ClCCl): 406 nm

Further lines, results first:

absorption maximum (in C1CCCCC1): 586 nm
absorption maximum (in CCOC(C)=O): 581 nm
absorption maximum (in CO): 579 nm
Compound: F[B-]1(F)n2c(cc3c4ccccc4oc32)C(c2ccccc2)=C2C=c3c(oc4ccccc34)=[N+]21

absorption maximum (in ClCCl): 503 nm
Compound: CCCCC1=C(CCCC)c2cccc3c2c(cc2nc4ccccc4nc23)O1

absorption maximum (in CC#N): 371 nm
Compound: O=c1oc2ccccc2cc1/C=C/c1ccc([N+](=O)[O-])cc1

absorption maximum (in CCO): 395 nm
absorption maximum (in ClCCl): 397 nm
Compound: N#Cc1ncc(-c2c3ccccc3c(-c3cnc(C#N)nc3)c3ccccc23)cn1

absorption maximum (in CS(C)=O): 376 nm
absorption maximum (in ClCCl): 374 nm
Compound: O=c1oc2ccccc2c2c1c(=O)oc1cc(O)ccc12

absorption maximum (in C1CCCCC1): 351 nm
Compound: CCCC1(CCC)c2cc(-c3ccc4c(c3)C(CCC)(CCC)c3cc(C(C)(C)CC)ccc3-4)ccc2-c2ccc(-c3ccc4c(c3)C(CCC)(CCC)c3cc(C(C)(C)CC)ccc3-4)cc21

absorption maximum (in CO): 568 nm
Compound: CCN(C)c1ccc(C2=C3C(C)=CC(/C=C/c4ccc(OCCCN=[N+]=[N-])cc4)=[N+]3[B-](F)(F)n3c(C)cc(C)c32)cc1

absorption maximum (in ClCCl): 356 nm
absorption maximum (in O): 346 nm
Compound: Oc1c(-c2cccs2)cccc1-c1nc2ccccc2s1

absorption maximum (in C1CCOC1): 577 nm
Compound: Cc1ccc(C2=C3C=CC(Sc4ccccc4)=[N+]3[B-](F)(F)n3c(Sc4ccccc4)ccc32)cc1

absorption maximum (in C1CCOC1): 358 nm
Compound: N#Cc1c(N2CCCC2)cc(-c2ccccc2)c2c1C(=O)c1ccccc1-2
